Results reported in ChEMBL document CHEMBL1201862, “PubChem BioAssay data set” (2004).
The source made the active and inactive calls.

Columns and labels:
Format in all cases: functional
[1] = molecular target: T1, G-protein coupled receptor 55 (Homo sapiens, UniProt Q9Y2T6); assay: GPR55 agonists via beta-arrestin recruitment, primary screen, imaging, U2OS cells, beta-arrestin-GFP redistribution (AID 1961)
Cannabinoid receptor 2 [2] = molecular target: T2, Cannabinoid receptor 2 (Homo sapiens, UniProt P34972); assay: SAR analysis of antagonists of the Cannabinoid Receptor 2 using an Image-Based Assay - Set 2. [Related pubchem assays (depositor defined):AID1961, AID1965]
Cannabinoid receptor 2 [3] = molecular target: T2, Cannabinoid receptor 2; assay: SAR analysis of agonists of the Cannabinoid Receptor 2 using an Image-Based Assay - Set 2. [Related pubchem assays (depositor defined):AID1961, AID1965]
[4] = molecular target: T3, Tyrosine-protein phosphatase non-receptor type 7 (Homo sapiens, UniProt P35236); assay: SAR analysis of chemical inhibitors of HePTP using a Fluorescent assay - Set 2. [Related pubchem assays (depositor defined):AID1059, AID1077, AID1661, AID2085, AID521]
T3 sequence (P35236 whole entry): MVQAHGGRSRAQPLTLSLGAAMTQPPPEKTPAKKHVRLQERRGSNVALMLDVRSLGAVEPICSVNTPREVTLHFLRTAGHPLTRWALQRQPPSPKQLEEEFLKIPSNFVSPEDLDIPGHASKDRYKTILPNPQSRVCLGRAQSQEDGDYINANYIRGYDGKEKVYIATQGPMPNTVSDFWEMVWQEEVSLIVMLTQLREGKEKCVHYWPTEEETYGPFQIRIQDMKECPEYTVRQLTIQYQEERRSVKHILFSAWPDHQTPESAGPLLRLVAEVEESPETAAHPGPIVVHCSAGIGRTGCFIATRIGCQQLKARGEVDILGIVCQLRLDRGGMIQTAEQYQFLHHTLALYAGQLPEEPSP

[5] = molecular target: T1, G-protein coupled receptor 55; assay: SAR analysis of selective Agonists of GPR55 using an Image-Based Assay. [Related pubchem assays (depositor defined):AID1961, AID1965]
Cannabinoid receptor 1 = Cannabinoid receptor 1 (Homo sapiens, UniProt P21554); assay: SAR analysis of antagonists of the Cannabinoid Receptor 1 using an Image-Based Assay. [Related pubchem assays (depositor defined):AID1961, AID1965]
[6] = molecular target: Dual specificity protein phosphatase 3 (Homo sapiens, UniProt P51452); assay: SAR VHR1 Fluorescent Assay for In Vitro dose response studies Set 2. [Related pubchem assays (depositor defined):AID1654, AID1661, AID1878]
[7] = molecular target: Sphingosine 1-phosphate receptor 1 (Homo sapiens, UniProt P21453); assay: Fluorescence-based counterscreen assay for S1P4 agonists: Cell-based dose response high throughput screening assay to identify agonists of the Sphingosine 1-Phosphate Receptor 1 (S1P1). [Related pubchem assays (depositor defined):AID1509, AID1523, AID1801, AID463107, AID463118, AID463119, AID463122, AID463123, AID463129, AID463225, AID504400, AID504460]
[8] = cytotoxicity in HPDE-C7 cells, cell-based, fluorescence, HTS (AID 430); conditions: Homo sapiens
[9] = cytotoxicity in KRAS-transformed pancreatic duct cells, primary screen, cell-based, fluorescence, HTS (AID 431); conditions: Homo sapiens;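 note: cell line used: HPDE-C7K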
[10] = molecular target: Sphingosine 1-phosphate receptor 4 (Homo sapiens, UniProt O95977); assay: Fluorescence dose response cell-based high throughput screening assay for agonists of the Sphingosine 1-Phosphate Receptor 4 (S1P4). [Related pubchem assays: 1509 (Primary screen.), 1523 (Confirmation screen in triplicates.)]
[11] = molecular target: Sphingosine 1-phosphate receptor 2 (Homo sapiens, UniProt O95136); assay: Dose Response Cell Based Assay for Agonists of the S1P2 Receptor. [Related pubchem assays: 729, 736, 843 ]
[12] = molecular target: T4, Short transient receptor potential channel 4 (Mus musculus, UniProt Q9QUQ5); assay: mouse TRPC4 channel activators, dose response, cell-based, HEK293 TRPC4/mu-opioid, Fluo-4 calcium (AID 434937)
T4 sequence (Q9QUQ5 whole entry): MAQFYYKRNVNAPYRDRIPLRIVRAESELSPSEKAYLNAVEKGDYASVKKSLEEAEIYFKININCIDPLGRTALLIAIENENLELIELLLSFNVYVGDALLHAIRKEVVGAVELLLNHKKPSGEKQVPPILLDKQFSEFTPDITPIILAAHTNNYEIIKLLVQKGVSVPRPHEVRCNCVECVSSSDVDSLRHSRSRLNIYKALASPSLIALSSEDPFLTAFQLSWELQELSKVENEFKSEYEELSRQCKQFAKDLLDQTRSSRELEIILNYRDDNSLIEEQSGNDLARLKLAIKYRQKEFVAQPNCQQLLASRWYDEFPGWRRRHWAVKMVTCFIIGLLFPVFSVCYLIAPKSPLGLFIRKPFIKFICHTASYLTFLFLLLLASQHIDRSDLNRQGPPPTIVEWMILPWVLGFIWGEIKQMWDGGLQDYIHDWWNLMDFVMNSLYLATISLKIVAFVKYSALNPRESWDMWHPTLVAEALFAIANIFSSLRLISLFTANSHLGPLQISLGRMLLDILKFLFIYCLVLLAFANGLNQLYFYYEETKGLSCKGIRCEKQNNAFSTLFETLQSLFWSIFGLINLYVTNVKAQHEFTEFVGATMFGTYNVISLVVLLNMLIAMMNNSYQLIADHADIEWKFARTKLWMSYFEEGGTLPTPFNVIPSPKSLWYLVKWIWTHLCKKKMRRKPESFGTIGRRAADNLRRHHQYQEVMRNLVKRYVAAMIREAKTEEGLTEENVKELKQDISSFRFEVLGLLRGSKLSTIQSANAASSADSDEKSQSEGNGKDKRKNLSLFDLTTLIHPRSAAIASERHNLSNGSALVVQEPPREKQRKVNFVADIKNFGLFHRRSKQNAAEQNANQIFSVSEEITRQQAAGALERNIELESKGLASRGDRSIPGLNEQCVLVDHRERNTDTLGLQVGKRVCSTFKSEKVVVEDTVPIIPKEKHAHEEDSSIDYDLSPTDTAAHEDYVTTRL

T2 sequence (P34972 whole entry): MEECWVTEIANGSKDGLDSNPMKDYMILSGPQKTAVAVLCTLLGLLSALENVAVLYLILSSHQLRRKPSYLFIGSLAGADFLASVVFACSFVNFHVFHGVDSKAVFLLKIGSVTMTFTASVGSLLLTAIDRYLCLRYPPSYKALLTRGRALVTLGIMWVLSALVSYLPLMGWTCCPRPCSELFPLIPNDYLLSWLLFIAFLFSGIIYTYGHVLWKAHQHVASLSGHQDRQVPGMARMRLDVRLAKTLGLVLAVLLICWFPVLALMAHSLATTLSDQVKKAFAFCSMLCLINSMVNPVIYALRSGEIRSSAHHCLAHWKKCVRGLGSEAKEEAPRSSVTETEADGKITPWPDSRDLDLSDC
T1 sequence (Q9Y2T6 whole entry): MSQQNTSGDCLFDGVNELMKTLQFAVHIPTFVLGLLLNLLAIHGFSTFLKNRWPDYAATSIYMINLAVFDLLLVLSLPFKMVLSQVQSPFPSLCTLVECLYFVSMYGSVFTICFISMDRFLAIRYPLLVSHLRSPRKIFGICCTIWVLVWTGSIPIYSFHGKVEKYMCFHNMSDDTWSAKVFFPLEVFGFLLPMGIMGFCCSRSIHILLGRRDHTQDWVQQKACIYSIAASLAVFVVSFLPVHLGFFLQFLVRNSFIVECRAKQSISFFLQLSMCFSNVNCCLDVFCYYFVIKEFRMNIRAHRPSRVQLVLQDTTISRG
Dual specificity protein phosphatase 3, sequence (P51452 whole entry): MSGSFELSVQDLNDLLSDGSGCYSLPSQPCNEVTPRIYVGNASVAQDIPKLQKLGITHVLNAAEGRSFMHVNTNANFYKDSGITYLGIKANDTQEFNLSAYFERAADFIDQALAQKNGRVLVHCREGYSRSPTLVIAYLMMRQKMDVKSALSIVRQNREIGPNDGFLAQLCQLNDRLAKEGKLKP
Sphingosine 1-phosphate receptor 2, sequence (O95136 whole entry): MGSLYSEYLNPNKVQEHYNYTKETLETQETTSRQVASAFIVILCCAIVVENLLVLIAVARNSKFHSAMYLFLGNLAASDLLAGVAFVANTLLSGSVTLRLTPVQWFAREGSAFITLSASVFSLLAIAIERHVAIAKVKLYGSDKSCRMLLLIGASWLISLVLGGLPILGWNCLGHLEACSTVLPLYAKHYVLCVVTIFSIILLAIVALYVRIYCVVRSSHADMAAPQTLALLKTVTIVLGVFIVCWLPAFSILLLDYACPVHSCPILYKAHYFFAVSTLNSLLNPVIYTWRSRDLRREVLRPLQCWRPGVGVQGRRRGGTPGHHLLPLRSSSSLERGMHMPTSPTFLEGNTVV
Cannabinoid receptor 1, sequence (P21554 whole entry): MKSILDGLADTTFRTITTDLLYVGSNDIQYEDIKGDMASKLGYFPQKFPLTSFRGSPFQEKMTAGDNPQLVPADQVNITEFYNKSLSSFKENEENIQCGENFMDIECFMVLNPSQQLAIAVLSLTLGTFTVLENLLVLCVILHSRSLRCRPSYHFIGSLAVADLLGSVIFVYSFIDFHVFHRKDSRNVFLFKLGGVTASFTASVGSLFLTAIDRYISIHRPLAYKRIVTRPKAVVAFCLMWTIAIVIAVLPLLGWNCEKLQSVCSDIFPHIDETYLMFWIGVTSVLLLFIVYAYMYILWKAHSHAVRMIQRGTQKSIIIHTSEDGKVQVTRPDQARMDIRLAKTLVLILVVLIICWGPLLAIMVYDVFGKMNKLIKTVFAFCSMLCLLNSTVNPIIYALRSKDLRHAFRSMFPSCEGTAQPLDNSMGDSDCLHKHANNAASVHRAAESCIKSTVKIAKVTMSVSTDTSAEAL
Sphingosine 1-phosphate receptor 1, sequence (P21453 whole entry): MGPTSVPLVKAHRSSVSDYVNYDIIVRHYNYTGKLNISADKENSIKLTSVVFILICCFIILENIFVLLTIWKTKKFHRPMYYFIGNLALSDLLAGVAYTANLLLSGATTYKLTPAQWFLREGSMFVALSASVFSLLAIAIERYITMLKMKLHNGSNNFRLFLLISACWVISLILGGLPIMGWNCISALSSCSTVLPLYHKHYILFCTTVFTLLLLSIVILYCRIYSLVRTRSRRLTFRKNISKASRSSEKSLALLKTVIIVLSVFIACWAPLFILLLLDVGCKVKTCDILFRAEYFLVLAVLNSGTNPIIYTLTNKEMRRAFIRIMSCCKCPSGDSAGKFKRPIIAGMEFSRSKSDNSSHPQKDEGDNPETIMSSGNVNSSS
Sphingosine 1-phosphate receptor 4, sequence (O95977 whole entry): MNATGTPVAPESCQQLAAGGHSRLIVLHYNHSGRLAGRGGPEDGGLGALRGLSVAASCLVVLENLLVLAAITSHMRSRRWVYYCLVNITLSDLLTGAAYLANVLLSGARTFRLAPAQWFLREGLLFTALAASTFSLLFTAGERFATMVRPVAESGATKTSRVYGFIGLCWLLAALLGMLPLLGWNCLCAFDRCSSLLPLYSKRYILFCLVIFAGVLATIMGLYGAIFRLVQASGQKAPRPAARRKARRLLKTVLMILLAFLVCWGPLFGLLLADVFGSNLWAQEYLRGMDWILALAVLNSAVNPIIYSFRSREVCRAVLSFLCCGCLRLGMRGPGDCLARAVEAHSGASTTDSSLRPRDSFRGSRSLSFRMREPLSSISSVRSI

Compound: C=CCN(CC=C)S(=O)(=O)c1ccc(NC(=S)NC(=O)c2ccc(-c3ccccc3)cc2)cc1
- EC50 [1]: < 0.5 µM (active)
- IC50 (Cannabinoid receptor 2 [2]): > 32 µM (inactive)
- EC50 (Cannabinoid receptor 2 [3]): > 32 µM (inactive)
- IC50 [4]: > 100 µM (inactive)
- EC50 [5]: 0.2 µM (active)
- IC50 (Cannabinoid receptor 1): > 32 µM (inactive)
- IC50 [6]: > 100 µM (inactive)

Compound: Clc1ccc2nc(N3CCNCC3)nc(-c3ccccc3)c2c1
- EC50 [7]: > 49.8 µM (inactive)
- EC50 [8]: 8.03 µM (active)
- EC50 [9]: 4.64 µM (active)
- EC50 [10]: > 49.8 µM (not active)
- EC50 [11]: 1.34 µM (active)
- EC50 [12]: 5.96 µM (active)
